“And” between values parts separate entries of the source, which are not always exact repeats. Identical values can stand only once.

The conditions of data set [1]: cited from earlier work.
The test system of data set [2] is bovine liver alkaline phosphatase. The note with it: particularly isozyme from bovine liver; cited from earlier work.
A short description of data set [3]: cyclic voltammetry of substrate and product. The format is physicochemical. The text has this:
Typically, in the test element, the enzyme and the substrate are in separate carbon-based layers. The respective carbon mixtures are applied to a conductive track of a support, for example in the close proximity of a reference electrode mixture connected to a second track. In this way, a miniaturized sensor is produced which is capable of working with a small sample of blood bridging the electrode areas. The mixtures are suitably applied by screen printing. Suitable enzymes and suitable substrates can be determined by routine experimentation. Bovine liver alkaline phosphatase is the preferred enzyme, and p-aminophenyl phosphate is the preferred substrate. Other candidate substrates include, for example naphthyl phosphate, and 4-ferrocenylaminophenyl phosphate. […] Furthermore the electrochemistry of p-aminophenol is in a potential region where there would be minimal interference from endogenous blood components.
Cyclic voltammograms of p-aminophenyl phosphate before and after incubation with alkaline phosphatase are shown in FIGS. 3 and 4, the lower voltammogram corresponding to post-incubation.

As for `Cn1c(=O)c2[nH]cnc2n(C)c1=O` [theophylline], the “levels encountered in cases of toxicity” value in data set [1] was ≤ 60 μg/ml and ≤ 330 μM. The “inhibition of alkaline phosphatase isozymes” value in data set [2] was “very potent inhibitor”.
In the case of `Nc1ccc(O)cc1` [p-aminophenol], the “E°' of reversible wave” value in data set [3] is reported as “about -65 mV”.

Source of the values: patent publication US5124253A (Medisense, Inc., priority 1988, dated 1992).
